# In patent publication US10710978B2, “STK4 inhibitors for treatment of hematologic malignancies” (Dana-Farber Cancer Institute, Inc., priority 2015, dated 2020):
# Like-named read-outs stand apart in the source and are kept apart here.
# Key:
# STK4 (MST1) = STK4 (MST1) (Homo sapiens (Human), UniProt Q13043); test: Z-lyte biochemical IC50 assay (Invitrogen); details: ATP concentration matched the Km
# Experimental: (§1) STK4 (MST1), STK3 (MST2); STK24 (MST3) and MST4 Assays
# (§2) Biochemical IC50s were measured at Invitrogen using Z-lyte technology. Briefly, for STK4, the 2×STK4 (MST1)/Ser/Thr 07 mixture was prepared in 50 mM HEPES pH 7.5, 0.01% BRIJ35, 10 mM MgCl2, 1 mM EGTA. The final 10 μL Kinase Reaction consisted of 6.25-160 ng STK4 (MST1) and 2 μM Ser/Thr 07 in 50 mM HEPES pH 7.5, 0.01% BRIJ-35, 10 mM MgCl2, 1 mM EGTA. After the 1 hour Kinase Reaction incubation, 5 μL of a 1:100000 dilution of Development Reagent A was added. Compounds were screened in a 10 point titration with 3-fold serial dilutions starting at a concentration of 10 μM. The biochemical IC50s against other STK family members were measured similarly. The ATP concentration used matched the Km for each kinase.
# STK24 (MST3) = STK24 (MST3) (Homo sapiens (Human), UniProt Q9Y6E0); test: Z-lyte biochemical IC50 assay (Invitrogen); details: ATP concentration matched the Km
# Experimental: as §1, §2
# IRE1 = IRE1 (Homo sapiens (Human), UniProt O75460); test: KiNativ assay; format: binding; details: H929 live cell
# Experimental: (§3) Biochemical IC50s of the compounds of the present disclosure against various kinases were measured in a KiNativ assay. Compounds were screened in duplicate at 10 μM in H929 live cell. IC50 was measured via Mass spectroscopy (MS).
# PFTAIRE1 = PFTAIRE1 (Homo sapiens (Human), UniProt O94921); test: KiNativ assay; format: binding; details: H929 live cell
# Experimental: as §3
# CK1g2 = CK1g2 (Homo sapiens (Human), UniProt P78368); test: KiNativ assay; format: binding; details: H929 live cell
# Experimental: as §3
# GSK3B = GSK3B (Homo sapiens (Human), UniProt P49841); test: KiNativ assay; format: binding; details: H929 live cell
# Experimental: as §3
# IKKa = IKKa (Homo sapiens (Human), UniProt O15111); test: KiNativ assay; format: binding; details: H929 live cell
# Experimental: as §3
# STLK6 = STLK6 (Homo sapiens (Human), UniProt Q9C0K7); test: KiNativ assay; format: binding; details: H929 live cell
# Experimental: as §3
# CLK2 = CLK2 (Homo sapiens (Human), UniProt P49760); test: KiNativ assay; format: binding; details: H929 live cell
# Experimental: as §3
# CK1a = CK1a (Homo sapiens (Human), UniProt P48729); test: KiNativ assay; format: binding; details: H929 live cell
# Experimental: as §3
# NDR2 = NDR2 (Homo sapiens (Human), UniProt Q9Y2H1); test: KiNativ assay; format: binding; details: H929 live cell
# Experimental: as §3
# MAP2K7 = MAP2K7 (Homo sapiens (Human), UniProt O14733); test: KiNativ assay; format: binding; details: H929 live cell
# Experimental: as §3
# GCN2 domain2 = GCN2 domain2 (Homo sapiens (Human), UniProt Q9P2K8); test: KiNativ assay; format: binding; details: H929 live cell
# Experimental: as §3
# SGK3 = SGK3 (Homo sapiens (Human), UniProt Q96BR1); test: KiNativ assay; format: binding; details: H929 live cell
# Experimental: as §3
# MST2 = MST2 (Homo sapiens (Human), UniProt Q13188); test: KiNativ assay; format: binding; details: H929 live cell
# Experimental: as §3
# PLK1 = PLK1 (Homo sapiens (Human), UniProt P53350); test: KiNativ assay; format: binding; details: H929 live cell
# Experimental: as §3
# SLK = SLK (Homo sapiens (Human), UniProt Q9H2G2); test: KiNativ assay; format: binding; details: H929 live cell
# Experimental: as §3
# MSK2 domain1 = MSK2 domain1 (Homo sapiens (Human), UniProt O75676); test: KiNativ assay; format: binding; details: H929 live cell
# Experimental: as §3
# [1] = range class, read-out: % inhibition
# Sequence of NDR2 (Q9Y2H1 whole entry): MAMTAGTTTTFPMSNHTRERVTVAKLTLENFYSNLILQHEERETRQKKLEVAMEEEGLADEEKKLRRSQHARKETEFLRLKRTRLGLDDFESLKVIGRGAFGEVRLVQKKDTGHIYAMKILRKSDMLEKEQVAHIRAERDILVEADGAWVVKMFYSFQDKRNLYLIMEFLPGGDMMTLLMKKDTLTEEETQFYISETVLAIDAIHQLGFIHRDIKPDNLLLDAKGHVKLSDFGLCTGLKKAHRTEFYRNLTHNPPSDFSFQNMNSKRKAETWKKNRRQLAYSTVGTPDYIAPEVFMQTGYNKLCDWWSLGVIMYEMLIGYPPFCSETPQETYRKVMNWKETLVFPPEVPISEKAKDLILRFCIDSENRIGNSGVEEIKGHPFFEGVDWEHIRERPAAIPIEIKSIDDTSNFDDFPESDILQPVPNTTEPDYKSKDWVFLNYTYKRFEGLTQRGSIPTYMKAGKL
# Sequence of STLK6 (Q9C0K7 whole entry): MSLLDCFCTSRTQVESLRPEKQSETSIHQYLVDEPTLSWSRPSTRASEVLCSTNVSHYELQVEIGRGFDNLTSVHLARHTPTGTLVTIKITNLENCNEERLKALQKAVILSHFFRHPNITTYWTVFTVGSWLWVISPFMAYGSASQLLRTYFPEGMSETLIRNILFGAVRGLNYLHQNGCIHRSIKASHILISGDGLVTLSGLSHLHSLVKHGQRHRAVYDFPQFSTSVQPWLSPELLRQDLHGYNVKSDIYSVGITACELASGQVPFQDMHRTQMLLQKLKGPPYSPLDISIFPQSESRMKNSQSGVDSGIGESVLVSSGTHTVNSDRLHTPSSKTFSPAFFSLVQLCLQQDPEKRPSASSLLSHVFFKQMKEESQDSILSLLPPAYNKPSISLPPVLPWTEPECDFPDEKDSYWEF
# Sequence of CK1a (P48729 whole entry): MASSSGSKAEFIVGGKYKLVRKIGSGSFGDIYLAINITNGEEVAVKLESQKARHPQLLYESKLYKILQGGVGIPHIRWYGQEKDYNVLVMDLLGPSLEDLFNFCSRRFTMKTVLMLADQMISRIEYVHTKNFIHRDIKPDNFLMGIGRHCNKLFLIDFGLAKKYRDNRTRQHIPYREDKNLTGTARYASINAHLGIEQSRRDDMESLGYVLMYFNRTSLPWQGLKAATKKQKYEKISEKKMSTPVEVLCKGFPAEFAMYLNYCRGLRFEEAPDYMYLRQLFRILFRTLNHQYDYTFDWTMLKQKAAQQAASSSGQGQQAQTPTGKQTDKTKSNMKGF
# Sequence of IKKa (O15111 whole entry): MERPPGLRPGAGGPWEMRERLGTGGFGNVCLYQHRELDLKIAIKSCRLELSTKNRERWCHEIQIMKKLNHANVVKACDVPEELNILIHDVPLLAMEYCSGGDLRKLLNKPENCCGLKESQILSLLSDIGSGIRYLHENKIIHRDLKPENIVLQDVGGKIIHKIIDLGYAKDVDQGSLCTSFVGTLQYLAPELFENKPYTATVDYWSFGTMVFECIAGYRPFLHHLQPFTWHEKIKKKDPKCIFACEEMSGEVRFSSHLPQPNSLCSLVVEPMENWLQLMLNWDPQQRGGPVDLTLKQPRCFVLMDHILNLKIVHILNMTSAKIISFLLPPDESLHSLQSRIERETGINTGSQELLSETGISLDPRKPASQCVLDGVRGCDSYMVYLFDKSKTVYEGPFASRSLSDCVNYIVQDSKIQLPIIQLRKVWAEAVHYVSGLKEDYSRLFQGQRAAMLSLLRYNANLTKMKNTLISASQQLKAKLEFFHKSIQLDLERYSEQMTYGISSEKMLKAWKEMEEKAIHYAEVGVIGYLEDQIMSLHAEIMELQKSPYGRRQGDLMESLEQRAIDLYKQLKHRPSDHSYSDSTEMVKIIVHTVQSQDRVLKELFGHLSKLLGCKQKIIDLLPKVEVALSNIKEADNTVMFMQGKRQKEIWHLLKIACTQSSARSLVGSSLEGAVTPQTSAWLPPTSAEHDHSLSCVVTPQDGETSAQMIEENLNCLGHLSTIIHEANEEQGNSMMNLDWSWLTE
# Sequence of CK1g2 (P78368 whole entry): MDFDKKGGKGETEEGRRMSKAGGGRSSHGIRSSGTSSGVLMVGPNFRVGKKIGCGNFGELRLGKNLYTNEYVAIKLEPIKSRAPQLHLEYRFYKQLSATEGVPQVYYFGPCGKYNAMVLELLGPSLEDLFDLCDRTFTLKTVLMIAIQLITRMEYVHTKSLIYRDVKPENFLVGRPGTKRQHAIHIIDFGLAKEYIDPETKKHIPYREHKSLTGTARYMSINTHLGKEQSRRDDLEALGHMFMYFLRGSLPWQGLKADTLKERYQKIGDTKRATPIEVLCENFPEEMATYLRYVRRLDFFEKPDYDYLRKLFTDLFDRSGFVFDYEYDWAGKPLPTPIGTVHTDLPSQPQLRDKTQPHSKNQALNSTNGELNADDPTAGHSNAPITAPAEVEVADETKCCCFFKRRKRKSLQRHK
# Sequence of SLK (Q9H2G2 whole entry): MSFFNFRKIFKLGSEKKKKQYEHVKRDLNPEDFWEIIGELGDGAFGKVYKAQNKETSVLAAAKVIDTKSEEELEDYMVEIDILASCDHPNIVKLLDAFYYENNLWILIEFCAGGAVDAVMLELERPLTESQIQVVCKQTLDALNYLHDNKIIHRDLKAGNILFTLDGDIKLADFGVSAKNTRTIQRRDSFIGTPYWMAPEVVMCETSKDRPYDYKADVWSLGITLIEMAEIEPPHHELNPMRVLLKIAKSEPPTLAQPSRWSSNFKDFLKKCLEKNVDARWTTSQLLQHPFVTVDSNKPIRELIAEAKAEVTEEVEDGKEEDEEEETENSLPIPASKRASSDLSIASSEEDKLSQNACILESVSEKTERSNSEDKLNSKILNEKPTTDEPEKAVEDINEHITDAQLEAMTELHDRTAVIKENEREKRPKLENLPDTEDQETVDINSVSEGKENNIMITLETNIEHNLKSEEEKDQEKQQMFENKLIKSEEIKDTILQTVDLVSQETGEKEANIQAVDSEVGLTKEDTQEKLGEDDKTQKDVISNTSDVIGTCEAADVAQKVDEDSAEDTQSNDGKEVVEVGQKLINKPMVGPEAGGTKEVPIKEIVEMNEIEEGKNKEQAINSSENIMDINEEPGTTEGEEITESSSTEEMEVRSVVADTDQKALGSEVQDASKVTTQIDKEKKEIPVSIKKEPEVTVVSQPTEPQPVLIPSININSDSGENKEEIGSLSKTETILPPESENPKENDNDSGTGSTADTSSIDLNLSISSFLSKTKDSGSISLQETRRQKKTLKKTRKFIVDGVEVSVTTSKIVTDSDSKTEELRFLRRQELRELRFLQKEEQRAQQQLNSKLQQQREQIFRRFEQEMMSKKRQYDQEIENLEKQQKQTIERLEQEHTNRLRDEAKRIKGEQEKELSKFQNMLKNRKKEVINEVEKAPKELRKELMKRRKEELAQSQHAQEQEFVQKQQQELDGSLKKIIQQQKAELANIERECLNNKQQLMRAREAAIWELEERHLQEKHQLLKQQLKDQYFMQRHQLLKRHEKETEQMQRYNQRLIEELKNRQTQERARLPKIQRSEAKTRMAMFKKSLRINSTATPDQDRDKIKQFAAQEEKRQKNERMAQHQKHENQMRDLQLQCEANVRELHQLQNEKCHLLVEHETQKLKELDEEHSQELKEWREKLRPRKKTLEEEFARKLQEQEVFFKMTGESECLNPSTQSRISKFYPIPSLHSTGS
# Sequence of SGK3 (Q96BR1 whole entry): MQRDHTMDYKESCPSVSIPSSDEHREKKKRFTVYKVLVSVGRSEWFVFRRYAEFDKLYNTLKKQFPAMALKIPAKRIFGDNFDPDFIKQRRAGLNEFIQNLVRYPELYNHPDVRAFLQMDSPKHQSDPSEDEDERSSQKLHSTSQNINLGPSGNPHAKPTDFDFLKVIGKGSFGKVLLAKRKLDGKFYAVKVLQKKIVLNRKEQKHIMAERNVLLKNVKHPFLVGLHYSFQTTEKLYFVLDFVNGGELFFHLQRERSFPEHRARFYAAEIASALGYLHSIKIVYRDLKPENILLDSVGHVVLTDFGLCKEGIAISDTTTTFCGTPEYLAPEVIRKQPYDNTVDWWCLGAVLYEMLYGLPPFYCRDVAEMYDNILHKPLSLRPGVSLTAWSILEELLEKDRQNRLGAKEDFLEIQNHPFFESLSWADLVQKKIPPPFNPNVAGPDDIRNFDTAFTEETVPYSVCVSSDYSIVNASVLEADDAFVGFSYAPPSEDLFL
# Sequence of MAP2K7 (O14733 whole entry): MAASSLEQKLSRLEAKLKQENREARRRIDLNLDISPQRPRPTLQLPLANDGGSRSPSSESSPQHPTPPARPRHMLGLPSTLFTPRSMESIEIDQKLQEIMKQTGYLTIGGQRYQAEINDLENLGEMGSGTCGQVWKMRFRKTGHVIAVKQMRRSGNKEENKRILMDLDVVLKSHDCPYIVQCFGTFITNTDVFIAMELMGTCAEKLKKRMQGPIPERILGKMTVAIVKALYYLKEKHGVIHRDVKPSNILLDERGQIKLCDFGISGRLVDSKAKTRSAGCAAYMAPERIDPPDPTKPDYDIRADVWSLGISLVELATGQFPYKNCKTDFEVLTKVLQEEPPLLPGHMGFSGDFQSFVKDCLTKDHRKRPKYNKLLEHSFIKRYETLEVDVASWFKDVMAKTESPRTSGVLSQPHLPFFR
# Sequence of STK24 (MST3) (Q9Y6E0 whole entry): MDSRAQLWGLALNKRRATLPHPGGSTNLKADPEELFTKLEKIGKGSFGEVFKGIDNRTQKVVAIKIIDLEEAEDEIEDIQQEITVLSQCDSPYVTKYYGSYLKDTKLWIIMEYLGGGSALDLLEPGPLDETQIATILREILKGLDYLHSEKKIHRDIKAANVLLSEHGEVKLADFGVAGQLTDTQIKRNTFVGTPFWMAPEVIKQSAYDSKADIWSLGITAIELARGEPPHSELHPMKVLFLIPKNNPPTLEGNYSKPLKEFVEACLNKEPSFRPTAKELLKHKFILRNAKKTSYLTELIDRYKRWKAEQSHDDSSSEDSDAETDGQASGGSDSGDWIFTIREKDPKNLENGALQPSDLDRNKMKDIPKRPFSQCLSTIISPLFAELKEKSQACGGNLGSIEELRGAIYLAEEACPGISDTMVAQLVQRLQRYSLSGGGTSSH
Structure (SMILES),IC50 (STK4 (MST1)) [nM],IC50 (STK24 (MST3)) [nM],inhibition at 10 µM (IRE1; read-out: % inhibition (range)) [%],inhibition at 10 µM (IRE1; read-out: inhibition (10 μM)) [%],inhibition at 10 µM (PFTAIRE1; read-out: % inhibition (range)) [%],inhibition at 10 µM (PFTAIRE1; read-out: inhibition (10 μM)) [%],inhibition at 10 µM (CK1g2; read-out: inhibition (10 μM)) [%],inhibition at 10 µM (GSK3B; read-out: inhibition (10 μM)) [%],inhibition at 10 µM (IKKa; read-out: inhibition (10 μM)) [%],inhibition at 10 µM (STLK6; read-out: inhibition (10 μM)) [%],inhibition at 10 µM (CLK2; read-out:) [%],inhibition at 10 µM (CK1a; read-out: inhibition (10 μM)) [%],inhibition at 10 µM (NDR2; read-out: inhibition (10 μM)) [%],inhibition at 10 µM (MAP2K7; read-out: inhibition (10 μM)) [%],inhibition at 10 µM (GCN2 domain2; read-out: inhibition (10 μM)) [%],inhibition at 10 µM (SGK3; read-out: inhibition (10 μM)) [%],inhibition at 10 µM (MST2; read-out: inhibition (10 μM)) [%],inhibition at 10 µM (PLK1; read-out: inhibition (10 μM)) [%],inhibition at 10 µM (SLK; read-out: inhibition (10 μM)) [%],inhibition at 10 µM (MSK2 domain1; read-out: inhibition (10 μM)) [%],also measured
"Nc1ncc(-c2cc([N+](=O)[O-])ccc2F)cc1-c1ccc2c(c1)CCNC2=O [Compound I-1, 6-(2-amino-5-(2-fluoro-5-nitrophenyl)pyridin-3-yl)-3,4-dihydroisoquinolin-1(2H)-one]",< 40,> 900,,,,,,,,,,,,,,,,,,,
"Nc1ncc(-c2cccc([N+](=O)[O-])c2F)cc1-c1ccc2c(c1)CCNC2=O [Compound I-9, 6-(2-amino-5-(2-fluoro-3-nitrophenyl)pyridin-3-yl)-3,4-dihydroisoquinolin-1(2H)-one]",< 40,> 900,0,-50.1,50 to 75,74.6,> 90,97.2,-18.4,-47.7,> 95,84.6,-9.5,14.6,15.5,51.6,88.9,14.2,95.3,-36.5,inhibition at 10 µM (CK1g2; read-out: % inhibition (range)): > 90%; inhibition at 10 µM (GSK3B; read-out: % inhibition (range)): > 90%; inhibition at 10 µM (IKKa; read-out: % inhibition (range)): 0%; inhibition at 10 µM (STLK6; read-out: % inhibition (range)): 0%; inhibition at 10 µM (CLK2; read-out: % inhibition (range)): > 90%; inhibition at 10 µM (CK1a; read-out: % inhibition (range)): 75 to 90%; inhibition at 10 µM (NDR2; read-out: % inhibition (range)): 0%; inhibition at 10 µM (MAP2K7; read-out: % inhibition (range)): 0%; inhibition at 10 µM (GCN2 domain2; read-out: % inhibition (range)): 0%; inhibition at 10 µM (SGK3; read-out: % inhibition (range)): 50 to 75%; inhibition at 10 µM (MST2; read-out: % inhibition (range)): 75 to 90%; inhibition at 10 µM (PLK1; read-out: % inhibition (range)): 0%; inhibition at 10 µM (SLK; read-out: % inhibition (range)): > 90%; inhibition at 10 µM (MSK2 domain1; read-out: % inhibition (range)): 0%
"Nc1ncc(-c2cccc3ncsc23)cc1-c1ccc2c(c1)CCNC2=O [Compound I-13, 6-(2-amino-5-(benzo[d]thiazol-7-yl)pyridin-3-yl)-3,4-dihydroisoquinolin-1(2H)-one]",< 40,> 900,0,-17,35 to 50,49.2,> 90,88.4,2.6,-10.8,19.1,-17.4,4,15.1,13.5,13.1,85.5,6.6,49.2,-6.1,inhibition at 10 µM (CK1g2; read-out: % inhibition (range)): > 90%; inhibition at 10 µM (GSK3B; read-out: % inhibition (range)): 75 to 90%; inhibition at 10 µM (IKKa; read-out: % inhibition (range)): 0%; inhibition at 10 µM (STLK6; read-out: % inhibition (range)): 0%; inhibition at 10 µM (CLK2; read-out: % inhibition (range)): 0%; inhibition at 10 µM (CK1a; read-out: % inhibition (range)): 0%; inhibition at 10 µM (NDR2; read-out: % inhibition (range)): 0%; inhibition at 10 µM (MAP2K7; read-out: % inhibition (range)): 0%; inhibition at 10 µM (GCN2 domain2; read-out: % inhibition (range)): 0%; inhibition at 10 µM (SGK3; read-out: % inhibition (range)): 0%; inhibition at 10 µM (MST2; read-out: % inhibition (range)): 75 to 90%; inhibition at 10 µM (PLK1; read-out: % inhibition (range)): 0%; inhibition at 10 µM (SLK; read-out: % inhibition (range)): 35 to 50%; inhibition at 10 µM (MSK2 domain1; read-out: % inhibition (range)): 0%
"CN(C1CC1)S(=O)(=O)c1ccc(-c2cnc(N)c(-c3ccc4c(c3)CCNC4=O)c2)c(F)c1 [Compound I-28, 4-(6-amino-5-(1-oxo-1,2,3,4-tetrahydroisoquinolin-6-yl)pyridin-3-yl)-N-cyclopropyl-3-fluoro-N-methylbenzenesulfonamide]",< 40,40 to 200,0,-34.1,0,22.2,> 90,96.4,6.4,1.4,42.7,37.8,24.2,-0.5,-32.1,9.9,89.3,15.2,58.9,2.9,inhibition at 10 µM (CK1g2; read-out: % inhibition (range)): > 90%; inhibition at 10 µM (GSK3B; read-out: % inhibition (range)): > 90%; inhibition at 10 µM (IKKa; read-out: % inhibition (range)): 0%; inhibition at 10 µM (STLK6; read-out: % inhibition (range)): 0%; inhibition at 10 µM (CLK2; read-out: % inhibition (range)): 35 to 50%; inhibition at 10 µM (CK1a; read-out: % inhibition (range)): 35 to 50%; inhibition at 10 µM (NDR2; read-out: % inhibition (range)): 0%; inhibition at 10 µM (MAP2K7; read-out: % inhibition (range)): 0%; inhibition at 10 µM (GCN2 domain2; read-out: % inhibition (range)): 0%; inhibition at 10 µM (SGK3; read-out: % inhibition (range)): 0%; inhibition at 10 µM (MST2; read-out: % inhibition (range)): 75 to 90%; inhibition at 10 µM (PLK1; read-out: % inhibition (range)): 0%; inhibition at 10 µM (SLK; read-out: % inhibition (range)): 50 to 75%; inhibition at 10 µM (MSK2 domain1; read-out: % inhibition (range)): 0%
"COc1cc(NS(=O)(=O)C2CC2)ccc1-c1cnc(N)c(-c2ccc3c(c2)CCNC3=O)c1 [Compound I-50, N-(4-(6-amino-5-(1-oxo-1,2,3,4-tetrahydroisoquinolin-6-yl)pyridin-3-yl)-3-methoxyphenyl) cyclopropanesulfonamide]",< 40,200 to 900,,-8.7,,-2.4,79.9,81.1,-1.9,-15,10.8,-20.9,4.5,16.4,-12.3,11.2,97.5,-11.1,70.6,-2.8,inhibition at 10 µM (IRE1; [1]): 0%; inhibition at 10 µM (PFTAIRE1; [1]): 0%; inhibition at 10 µM (CK1g2; [1]): 75 to 90%; inhibition at 10 µM (GSK3B; [1]): 75 to 90%; inhibition at 10 µM (IKKa; [1]): 0%; inhibition at 10 µM (STLK6; [1]): 0%; inhibition at 10 µM (CLK2; [1]): 0%; inhibition at 10 µM (CK1a; [1]): 0%; inhibition at 10 µM (NDR2; [1]): 0%; inhibition at 10 µM (MAP2K7; [1]): 0%; inhibition at 10 µM (GCN2 domain2; [1]): 0%; inhibition at 10 µM (SGK3; [1]): 0%; inhibition at 10 µM (MST2; [1]): > 90%; inhibition at 10 µM (PLK1; [1]): 0%; inhibition at 10 µM (SLK; [1]): 50 to 75%; inhibition at 10 µM (MSK2 domain1; [1]): 0%
"Nc1ncc(-c2ccc(NS(=O)(=O)C3CC3)cc2F)cc1-c1ccc2c(c1)CCNC2=O [Compound I-51, N-(4-(6-amino-5-(1-oxo-1,2,3,4-tetrahydroisoquinolin-6-yl)pyridin-3-yl)-3-fluorophenyl) cyclopropanesulfonamide]",< 40,40 to 200,,-43.1,,8.8,84.1,90.2,-17.3,-15,65.3,-34.7,8.4,12.2,-5.1,26.3,95.3,-20.6,85.6,-8,inhibition at 10 µM (IRE1; [1]): 0%; inhibition at 10 µM (PFTAIRE1; [1]): 0%; inhibition at 10 µM (CK1g2; [1]): 75 to 90%; inhibition at 10 µM (GSK3B; [1]): > 90%; inhibition at 10 µM (IKKa; [1]): 0%; inhibition at 10 µM (STLK6; [1]): 0%; inhibition at 10 µM (CLK2; [1]): 50 to 75%; inhibition at 10 µM (CK1a; [1]): 0%; inhibition at 10 µM (NDR2; [1]): 0%; inhibition at 10 µM (MAP2K7; [1]): 0%; inhibition at 10 µM (GCN2 domain2; [1]): 0%; inhibition at 10 µM (SGK3; [1]): 0%; inhibition at 10 µM (MST2; [1]): > 90%; inhibition at 10 µM (PLK1; [1]): 0%; inhibition at 10 µM (SLK; [1]): 75 to 90%; inhibition at 10 µM (MSK2 domain1; [1]): 0%
